Source: patent publication US11634417B2 (Array BioPharma Inc., priority 2019, dated 2023)

Legend:
[1] = tested on: ERK1/2 (Thr202/Tyr204) phosphorylation in KYSE520 cells; experiment: Cellular Phospho-p44/42 MAPK (Erk1/2) (Thr202/Tyr204) assay, In-Cell Western; format: cell-based; conditions: Homo sapiens, KYSE-520; KYSE520 cells, 1 hour incubation, pERK signal normalized to GAPDH; single assay or mean of multiple assays; read-out: Biological Example 2 IC50
Method in brief: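 KYSE520 cells were treated 1 h with a 10-point 1:3 series (20 μM-1 nM, 0.5% DMSO), then fixed and stained for pERK1/2 (Thr202/Tyr204) and GAPDH by In-Cell Western. pERK signal was normalized to GAPDH per well; IC50 from 4-parameter fit.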

full-length SHP2 = target: T1, full-length SHP2 (Homo sapiens, UniProt Q06124); experiment: SHP2 enzymatic assay (fluorescence intensity kinetic assay, DiFMUP hydrolysis); format: biochemical; conditions: 1 nM His6-tagged SHP2(2-527), 1 μM activating peptide, 50 μM DiFMUP; single assay or mean of multiple assays; read-out: Biological Example 1 IC50
T1 construct: 1 nM full-length SHP2 (His6-tagged SHP2(2-527), recombinantly expressed in E. coli and purified in-house); His6; made in house; host or cells: E. coli
T1 sequence (Q06124 2-527): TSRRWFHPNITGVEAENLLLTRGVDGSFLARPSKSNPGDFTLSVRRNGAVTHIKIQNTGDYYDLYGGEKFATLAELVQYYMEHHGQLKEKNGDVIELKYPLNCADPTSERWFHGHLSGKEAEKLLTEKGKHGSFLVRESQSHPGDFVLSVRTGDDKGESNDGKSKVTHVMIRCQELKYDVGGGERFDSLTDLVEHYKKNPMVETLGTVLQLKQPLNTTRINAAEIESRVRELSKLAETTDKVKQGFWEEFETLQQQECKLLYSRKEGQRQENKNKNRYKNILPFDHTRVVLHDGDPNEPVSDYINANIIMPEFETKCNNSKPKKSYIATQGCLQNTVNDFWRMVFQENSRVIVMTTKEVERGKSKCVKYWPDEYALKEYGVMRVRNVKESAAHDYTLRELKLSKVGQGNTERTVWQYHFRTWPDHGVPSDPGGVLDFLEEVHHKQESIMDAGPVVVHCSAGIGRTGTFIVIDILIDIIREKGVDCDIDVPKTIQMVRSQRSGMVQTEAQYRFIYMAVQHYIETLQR

SMILES	IC50 [1]	IC50 (full-length SHP2)
N[C@@H]1c2ccccc2CC12CCN(c1ncc(Sc3n[nH]c4ccccc34)nn1)CC2 [Example 67, (S)-1′-(6-((1H-indazol-3-yl)thio)-1,2,4-triazin-3-yl)-1,3-dihydrospiro[indene-2,4′-piperidin]-1-amine]	51 nM	20 nM
CC(C)(C#N)CNc1nccc(Sc2cnc(N3CCC4(CC3)Cc3ccccc3[C@H]4N)nn2)c1Cl [Example 36, (S)-3-((4-((3-(1-amino-1,3-dihydrospiro[indene-2,4′-piperidin]-1′-yl)-1,2,4-triazin-6-yl)thio)-3-chloropyridin-2-yl)amino)-2,2-dimethylpropanenitrile]	17 nM	110 nM
Cc1nc2c(s1)[C@@H](N)C1(CCN(c3ncc(Sc4ccnc(N)c4Cl)nn3)CC1)C2 [Example 61, (S)-1′-(6-((2-amino-3-chloropyridin-4-yl)thio)-1,2,4-triazin-3-yl)-2-methyl-4,6-dihydrospiro[cyclopenta[d]thiazole-5,4′-piperidin]-6-amine]	6 nM	87 nM
Nc1nccc(Sc2cnc(N3CCC4(CC3)Cc3ccc(Cl)cc3[C@H]4N)nn2)c1Cl [Example 64, (S)-1′-(6-((2-amino-3-chloropyridin-4-yl)thio)-1,2,4-triazin-3-yl)-6-chloro-1,3-dihydrospiro[indene-2,4′-piperidin]-1-amine]	286 nM	41 nM
N[C@@H]1c2ccccc2CC12CCN(c1ncc(Sc3ccnc4c3C(F)(F)C(=O)N4)nn1)CC2 [Example 25, (S)-4-((3-(1-amino-1,3-dihydrospiro[indene-2,4′-piperidin]-1′-yl)-1,2,4-triazin-6-yl)thio)-3,3-difluoro-1,3-dihydro-2H-pyrrolo[2,3-b]pyridin-2-one]	2 nM	26 nM
C[C@@H]1OCC2(CCN(c3ncc(Sc4ccnc5[nH]ccc45)nn3)CC2)[C@@H]1N [Example 8, (3S,4S)-8-(6-((1H-pyrrolo[2,3-6]pyridin-4-yl)thio)-1,2,4-triazin-3-yl)-3-methyl-2-oxa-8-azaspiro[4.5]decan-4-amine]	48 nM	69 nM
Cc1nc(N2CCC3(CC2)CO[C@@H](C)[C@H]3N)nnc1Sc1ccnc(N)c1Cl [Example 4, (3S,4S)-8-(6-((2-amino-3-chloropyridin-4-yl)thio)-5-methyl-1,2,4-triazin-3-yl)-3-methyl-2-oxa-8-azaspiro[4.5]decan-4-amine]	519 nM	114 nM
COc1cc2c(cc1Cl)[C@H](N)C1(CCN(c3ncc(Sc4ccnc(N)c4Cl)nn3)CC1)C2 [Example 63, (R)-1′-(6-((2-amino-3-chloropyridin-4-yl)thio)-1,2,4-triazin-3-yl)-6-chloro-5-methoxy-1,3-dihydrospiro[indene-2,4′-piperidin]-1-amine]	665 nM	254 nM
Nc1ccc(Oc2cnc(N3CCC4(CC3)Cc3ccccc3[C@H]4N)nn2)cn1 [Example 22, (S)-1′-(6-((6-aminopyridin-3-yl)oxy)-1,2,4-triazin-3-yl)-1,3-dihydrospiro[indene-2,4′-piperidin]-1-amine]	17 nM	32 nM
Nc1nccc(Sc2cnc(N3CCC4(CC3)Cc3ncc(Cl)cc3[C@H]4N)nn2)c1Cl [Example 65, (S)-1′-(6-((2-amino-3-chloropyridin-4-yl)thio)-1,2,4-triazin-3-yl)-3-chloro-5,7-dihydrospiro[cyclopenta[b]pyridine-6,4′-piperidin]-5-amine]	81 nM	64 nM
CNc1nccc(Sc2cnc(N3CCC4(CC3)Cc3cc(C#N)ccc3[C@@H]4N)nn2)c1Cl (single isomer, unassigned) [Example 42]	813 nM	209 nM
N[C@@H]1c2ccccc2CC12CCN(c1ncc(Sc3ccnc4c3CCN4)nn1)CC2 [Example 70, (S)-1′-(6-((2,3-dihydro-1H-pyrrolo[2,3-b]pyridin-4-yl)thio)-1,2,4-triazin-3-yl)-1,3-dihydrospiro[indene-2,4′-piperidin]-1-amine]	9 nM	36 nM
Cc1ccc2c(c1)[C@@H](N)C1(CCN(c3ncc(Sc4ccnc(N)c4Cl)nn3)CC1)C2 [Example 45, (S)-1′-(6-((2-amino-3-chloropyridin-4-yl)thio)-1,2,4-triazin-3-yl)-6-methyl-1,3-dihydrospiro[indene-2,4′-piperidin]-1-amine]	2 nM	14 nM
Cc1ccc2c(n1)CC1(CCN(c3ncc(Sc4ccnc(N)c4Cl)nn3)CC1)[C@@H]2N [Example 62]	6 nM	39 nM
N[C@@H]1c2ccccc2CC12CCN(c1ncc(-c3cccc(Cl)c3)nn1)CC2 [Example 80, (S)-1′-(6-(3-chlorophenyl)-1,2,4-triazin-3-yl)-1,3-dihydrospiro[indene-2,4′-piperidin]-1-amine]	2990 nM	429 nM
N[C@@H]1c2ccccc2CC12CCN(c1ncc(Sc3cccc4c3CC4)nn1)CC2 [Example 37, (S)-1′-(6-(bicyclo[4.2.0]octa-1(6),2,4-trien-2-ylthio)-1,2,4-triazin-3-yl)-1,3-dihydrospiro[indene-2,4′-piperidin]-1-amine]	31 nM	11 nM
C[C@@H]1OCC2(CCN(c3ncc(-c4cccc(Cl)c4Cl)nn3)CC2)[C@@H]1N [Example 2, (3S,4S)-8-(6-(2,3-dichlorophenyl)-1,2,4-triazin-3-yl)-3-methyl-2-oxa-8-azaspiro[4.5]decan-4-amine]	2780 nM	76 nM
Cc1nccc(Sc2cnc(N3CCC4(CC3)Cc3ccccc3[C@H]4N)nn2)c1Cl [Example 54, (S)-1′-(6-((3-chloro-2-methylpyridin-4-yl)thio)-1,2,4-triazin-3-yl)-1,3-dihydrospiro[indene-2,4′-piperidin]-1-amine]	7 nM	62 nM
N[C@@H]1c2ccccc2CC12CCN(c1ncc(Sc3ccnc4[nH]ccc34)nn1)CC2 [Example 30, (S)-1′-(6-((1H-pyrrolo[2,3-b]pyridin-4-yl)thio)-1,2,4-triazin-3-yl)-1,3-dihydrospiro[indene-2,4′-piperidin]-1-amine]	2 nM	22 nM
